# Counter-ions that a name gives are not always drawn.
# Tests used:
# A431 cells [1] = experiment: Multi-well (static culture) Dox study on A431 cells, live/dead assay; format: cell-based; details: Dox 0, 6, 12, 18, 24 and 30 μg/ml; device flow rate 0.05 μl/min
# Protocol: Viability data with DMEM/Dox at the inlets at a flow rate of 0.05 μl/ml was compared with Dox treatment of A431 cells in static culture. A lower flow rate was chosen to minimize the effect of the shear stress on cell detachment and cell death. […] Cell viabilities data was collected by counting cells stained green and red from these chambers. According to simulation data, the concentration of Dox in the chambers 13 through 18 are: 0 μg/ml, 6 μg/ml, 12 μg/ml, 18 μg/ml, 24 μg/ml and 30 μg/ml. These dosages were applied in static culture and the viability data were collected. […] Doxorubicin hydrochloride 98.0-102.0% (HPLC) with molecular weight of 579.98 was dissolved in water and was diluted in DMEM media. For A431 cells, live-dead staining kit was diluted with PBS and was continuously flowed into the chambers with cells for 2 hours. Live-dead kit contains, Calcein-AM which stains green to the cytoskeleton of live cells and ethidium homodimer which stains red to the nuclei of dead cells. Cells were then counted with ImageJ cell counter module. Viability of the cells was calculated as the ratio of the live cells (stained green) over the total number of the cell, summation of the live (green) and dead (red) cells within each chamber.
# A431 cells [2] = experiment: Drug screening with live/dead assay on A431 cells in the MECT microfluidic device; format: cell-based
# Protocol: Taking advantage of the ability of the MECT device in generating uniform gradient within each chamber, a drug screening study with A431 cells administrated with control media and Dox was performed. Five conditions were studied: (1) Cells were stained with live/dead assay 24 hours after seeding without any media flow. This serves as the control; (2) cells were perfused by DMEM from both inlets for 12 hours before live/dead staining. This experiment examined the effect of shear stress on cell viability; (3, 4, 5) cells were perfused for 12 hours with DMEM/Dox (at a concentration of 30 μg/ml) from the bottom inlet and DMEM from the top inlet at flow rates of 0.05 μl/min (3), 0.1 μl/min (4) and 0.2 μl/min (5) for both inlets. Representative images for the studies of condition 1, 2, 4 and 5 are shown in FIGS. 6a-6d and of condition 3 in FIG. 7a. These studies were performed after the cells had been seeded within the microchambers for 24 hours. […] This provided clear evidence that cells within each chamber were viable and the device works properly. The effect of shear stress was then examined by perfusion of both inlets with a control media, Dulbecco's Modified Eagle Medium (DMEM) at a flow rate of 0.1 μl/min. Overall a slightly lower cell viability, at an average of 88%, was observed due to the shear induced cell death (FIG. 6b). In addition, the cell viability increased from the columns closest to the inlet of the device to the columns closes to the outlets, in agreement with COMSOL simulation where the shear stress is higher in the columns close to the inlets (FIG. 5).
# As discussed in microchannel fabrication, PDMS with ratio 1:10 were used to fabricate the microchannel and it was bonded to glass-slides and cured for 30 min at 80° C. inside the oven. Human fibronectin protein (Thermofisher) with the concentration of 50 μg/ml was used to coat the surface of the glass-slide as the bottom layer of the microchannels. Fibronectin was flowed into the microchannels by syringes and incubated for 2 hours. The fibronectin coated microchannel was washed with PBS. A mixture of the cell and DMEM was flowed into the microchannel by syringe pump at a flow rate (30 μl/min). The concentration of cell mixture was about 10 million cells per ml of media. Cell attachment and proliferation inside the microchannel was reached by placing the microchannel inside the incubator for 24 hours.
# Doxorubicin hydrochloride 98.0-102.0% (HPLC) with molecular weight of 579.98 was dissolved in water and was diluted in DMEM media. […] Cells were then counted with ImageJ cell counter module. Viability of the cells was calculated as the ratio of the live cells (stained green) over the total number of the cell, summation of the live (green) and dead (red) cells within each chamber.
structure (smiles),measurement,setting,value
"COc1cccc2c1C(=O)c1c(O)c3c(c(O)c1C2=O)C[C@@](O)(C(=O)CO)C[C@@H]3O[C@H]1C[C@H](N)[C@H](O)[C@H](C)O1 [Dox, Doxorubicin hydrochloride]",cell viability in static culture compared with device chambers #13 through #18,A431 cells [1],reasonable agreement
same,overall cell viability in condition 5 (0.2 μl/min DMEM/Dox) versus condition 4 (0.1 μl/min DMEM/Dox),"A431 cells [2]; 12 h, Dox 30 μg/ml, higher shear stress at higher flow rate",clearly lower
same,cell viability from chambers #13 to #18,"A431 cells [2]; 12 h DMEM/Dox 30 μg/ml, flow rates 0.05, 0.1 and 0.2 μl/min (conditions 3 through 5)",overall decline
same,cell viability from top chamber to bottom chamber of each column (lowest to highest Dox concentration),"A431 cells [2]; 12 h perfusion, DMEM top inlet, DMEM/Dox 30 μg/ml bottom inlet, flow rates 0.1 and 0.2 μl/min",decreased significantly
same,effect of increasing doxorubicin concentrations within chambers on skin cancer cells,A431 cells [2]; doxorubicin flowed into chambers at different flow rate,induces cell death

# Reference: patent US12064759B2, “Microfluidic device with embedded cell culture chambers for high throughput biological assays” (NUtech Ventures, priority 2020, dated 2024)
